Read-outs that look alike come from different tables or passages of the source. Marks after values point to notes of the source that are not given here.
Tests used:
[1] = system: A2780 ovarian cancer cells; assay: MTT cytotoxicity assay in A2780 (cisplatin sensitive) ovarian cancer cells; assay type: cell-based, human
Procedure: (§1) Cells were exposed to increasing concentrations of the complexes (0.01–100 μM) for 24 and/or 48 h, at 37 °C. The IC50 values were calculated from dose–response curves using the colorimetric MTT assay. […] Most complexes presented a similar cytotoxicity profile compared to Auranofin, but higher activity compared to Cisplatin, and, most importantly, were active in the Cisplatin-resistant OVCAR8 cells (Table 2).
(§2) The cytotoxic activity of the complexes was evaluated in the A2780 (cisplatin sensitive) (Sigma-Aldrich) and OVCAR8 (cisplatin resistant) (ATCC) ovarian cancer cells. Cells were grown in RPMI-1640 medium (Gibco, Thermo Fisher) supplemented with 10% fetal bovine serum (FBS) and were maintained at 37 °C in a humidified atmosphere with 5% CO2. The complexes were initially dissolved in DMSO and then in culture medium to prepare serial dilutions in the range 10^−9–10^−4 M. After 24 and/or 48 h incubation the cellular viability was measured by the colorimetric MTT assay, as previously described.

[2] = system: OVCAR8 ovarian cancer cells; assay: MTT cytotoxicity assay in OVCAR8 (cisplatin resistant) ovarian cancer cells; assay type: cell-based, human; conditions: 48 h incubation
Procedure: as §1, §2

C. albicans SC5134 [3] = assay: MIC determination, C. albicans; assay type: cell-based, Candida albicans; conditions: RPMIG, 24 h, 35 °C
Source text: (§3) The bacterial strains Escherichia coli ATCC25922 and Staphylococcus aureus Newman were used in this work and maintained in Lennox Broth (LB) solid medium, composed of 10 g/L tryptone, 5 g/L yeast extract, 5 g/L NaCl and 20 g/L agar. The fungal strains Candida albicans SC5134 and C. glabrata CBS138 were used in this work and maintained in YPD solid medium, composed of 20 g/L glucose, 20 g/L peptone, 10 g/L yeast extract and 15 g/L agar. The strains were isolated from human infections.
(§4) The antimicrobial activity of the complexes towards the bacterial and fungal strains was assessed by the determination of the Minimal Inhibitory Concentration (MIC) of each complex towards the indicated microbial strains, based on standard methods, and as previously described. […] Serial 1:2 dilutions of stock solutions were prepared for each complex in Mueller–Hinton (MH) broth (Fluka Analytical) or RPMI-1640 medium (Sigma) supplemented with 20 g/L glucose and buffered with 0.165 M morpholinepropanesulphonic acid (RPMIG) to pH 7.0. Solutions prepared with MH were used for testing bacteria, while those prepared with RPMIG were used for testing fungi. For antibacterial activity assays, the final concentrations ranged from 250 to 0.24 μg/mL (when stock solution final concentration was 10 mg/mL), 125 μg/mL to 0.12 μg/mL (when stock solution final concentration was 5 mg/mL) and 62.5 to 0.06 μg/mL (when stock solution final concentration was 2.5 mg/mL). For antifungal assays, the final concentrations ranged from 125 μg/mL to 0.12 μg/mL (when stock solution final concentration was 10 mg/mL), 62.5 to 0.06 μg/mL (when stock solution final concentration was 5 mg/mL) and 31.25 to 0.03 μg/mL (when stock solution final concentration was 2.5 mg/mL). Then, 100 μL aliquots of adequately diluted bacterial suspensions of S. aureus Newman or E. coli ATCC 25922 were mixed with the MH serially diluted complexes aliquots to obtain 5 × 10^5 CFU/mL. In the case of fungi, cultures were diluted to obtain a final optical density of 0.025, measured at 530 nm (OD530). Bacterial suspensions were prepared from cultures grown for 5 h in MH broth at 37 °C and 250 rev·min^−1 and adequately diluted with fresh MH medium, while fungal suspensions were prepared from overnight cultures grown in YPD broth at 30 °C and 250 rev.min^−1 and diluted in buffered RPMIG. After 22 h of incubation at 37 °C (bacteria) or 24 h at 35 °C (fungi), the wells’ content was resuspended by pipetting and the OD640 (bacteria) or OD530 (fungi) were measured in a SPECTROstar Nano microplate reader (BMG Labtech).
(§5) At least three independent experiments were performed in duplicate for each complex under study. […] Positive (no complex) and negative controls (no inoculum) were performed for each experiment. The effect of 5% (V/V) DMSO on microbial growth was also assessed.

Huh7 cells = assay: Cell viability (cell confluency, Alamar Blue) of P. berghei-infected Huh7 cells; assay type: cell-based; conditions: 5 µM, in words
Procedure: (§6) The in vitro liver stage activity of gold complexes was assessed against P. berghei-infected Huh7 cells, as previously described. Briefly, Huh7 cells were cultured in RPMI-1640 medium supplemented with 10% (v/v) fetal bovine serum, 1% (v/v) penicillin/streptomycin, 1% (v/v) glutamine, 1% (v/v) non-essential amino acids and 10 mM HEPES. On the day prior to infection, Huh7 cells were seeded in 96-well plates at a density of approximately 3.1 × 10^4 cell/cm^2 and incubated at 37 °C, 5% CO2. Stock solutions of the complexes were initially prepared in DMSO and serially diluted in infection medium, i.e., culture medium supplemented with gentamicin (50 µg/mL) and fungizone (0.8 µg/mL), to obtain the test concentrations. As a control, DMSO was diluted in infection medium to a percentage that equals that of the highest compound concentrations tested. These dilutions were added to the cells in triplicates and incubated for 1 h at 37 °C, 5% CO2, after which 1 × 10^4 luciferase-expressing P. berghei sporozoites were added to each well. Plates were centrifuged at 1800× g for 5 min at room temperature and incubated for the duration of the assay. At 46 h post-infection (hpi), the impact of each compound concentration on cell viability was assessed by the Alamar Blue (Invitrogen, Buckinghamshire, UK) assay, according to the manufacturer’s recommendations. Infection was next assessed by bioluminescence, employing the Firefly Luciferase Assay Kit 2.0 (Biotium, Fremont, CA, USA), according to the manufacturer’s recommendations. For IC50 determination, nonlinear regression analysis was employed to fit the normalized results of the dose–response curves, using GraphPad Prism 8 (GraphPad software, La Jolla, CA, USA).

C. glabrata CBS138 [4] = assay: MIC determination, C. glabrata; assay type: cell-based, Candida glabrata; conditions: RPMIG, 24 h, 35 °C
Source text: as §3, §4, §5

P. berghei hepatic stage = assay: In vitro activity against the hepatic stage of P. berghei infection (luciferase, Huh7 cells); assay type: cell-based, Plasmodium berghei; conditions: for IC50: hepatic stage, Huh7 cells, 46 hpi
Procedure: as §6

E. coli ATCC25922 [5] = assay: MIC determination, E. coli; assay type: cell-based, Escherichia coli; conditions: MH broth, 22 h, 37 °C
Source text: as §3, §4, §5

S. aureus Newman [6] = assay: MIC determination, S. aureus; assay type: cell-based, Staphylococcus aureus; conditions: MH broth, 22 h, 37 °C
Source text: as §3, §4, §5

[7] = system: zebrafish (Danio rerio) embryos; assay: Acute toxicity (mortality) in zebrafish embryo; assay type: in vivo; conditions: 72 hpf embryos, 0.1–10 μM, 48 h, in words
Source text: Toxicity is a major challenge for drug development and is the leading cause of drug failure. Consequently, the evaluation of the potential toxicity represents a critical step in the development of new drugs. In this context, the zebrafish embryo represents a notable in vivo vertebrate model for studying the toxic effects of chemical compounds due to the small size, robustness, multiple progenies from a single mating, chemical permeability, easiness of observation and maintenance under laboratory conditions. In addition, the close phylogeny of zebrafish and mammals, with highly conserved signaling pathways, makes this species increasingly used and ideal for performing toxicological studies. Therefore, we evaluated the complexes acute toxicity by measuring mortality of 72 h post-fertilization (hpf) zebrafish embryos when incubated with increasing concentrations of the Au(III) complexes for 48 h.
To test the toxicological effect of the gold (III) complexes, zebrafish (Danio rerio) embryos at developmental stage of 72 h post-fertilization (hpf) were exposed to different concentrations of the target complexes and mortality was assessed for 48 h of treatment. […]

C. glabrata CBS138 [8] = system: C. glabrata CBS138; design: method as in PMID 32391537; conditions: complexes starred as Complex 1 / Complex 2; cited from earlier work
[9] = system: A2780 ovarian cancer cells; design: method as in PMID 32391537; conditions: MTT, starred values, cited from earlier work
E. coli ATCC25922 [10] = system: E. coli ATCC25922; design: method as in PMID 32391537; conditions: complexes starred as Complex 1 / Complex 2; cited from earlier work
S. aureus Newman [11] = system: S. aureus Newman; design: method as in PMID 32391537; conditions: complexes starred as Complex 1 / Complex 2; cited from earlier work
C. albicans SC5134 [12] = system: C. albicans SC5134; design: method as in PMID 32391537; conditions: complexes starred as Complex 1 / Complex 2; cited from earlier work
[13] = 24 h incubation, read-out: IC50 A2780, 24 h
[14] = 48 h incubation, read-out: IC50 A2780, 48 h

Row | SMILES | IC50 [1, 13] | IC50 [1, 14] | IC50 [2] | MIC C. albicans SC5134 (C. albicans SC5134 [3]) | toxicity seen as lower cell confluency (Huh7 cells) | MIC C. glabrata CBS138 (C. glabrata CBS138 [4]) | IC50 (P. berghei hepatic stage) | MIC E. coli ATCC25922 (E. coli ATCC25922 [5]) | MIC S. aureus Newman (S. aureus Newman [6]) | toxicity in zebrafish embryo [7] | activity against hepatic stage of P. berghei (positive control) (P. berghei hepatic stage; in words) | MIC C. glabrata CBS138 (C. glabrata CBS138 [8]) | IC50 [9, 13] | IC50 [9, 14] | MIC E. coli ATCC25922 (E. coli ATCC25922 [10]) | MIC S. aureus Newman (S. aureus Newman [11]) | MIC C. albicans SC5134 (C. albicans SC5134 [12])
1 | CCCn1c2c(sc1=[Se])[S][Au-]1([S]c3sc(=[Se])n(CCC)c3[S]1)[S]2.c1ccc([P+](c2ccccc2)(c2ccccc2)c2ccccc2)cc1 [[P][AuSPr(=Se)]] | 620 ± 190 nM | 550 ± 410 nM | 800 ± 180 nM | 62.5 µg/mL | some degree of toxicity | >62.5 µg/mL | 643.9 ± 1.34 nM | >125 µg/mL | >125 µg/mL |  |  |  |  |  |  |  | 
2 | CCN1C(=C(C#N)C#N)SC2=C1[S][Au-]1([S]2)[S]C2=C([S]1)N(CC)C(=C(C#N)C#N)S2.CC[N+](CC)(CC)CC [[N][AuSEt(=C(CN)2)]] | 1320 ± 200 nM | 170 nM | 1480 ± 410 nM | >62.5 µg/mL | some degree of toxicity | >62.5 µg/mL |  | >125 µg/mL | >125 µg/mL | more toxic than [N][AuSEt(=S)] |  |  |  |  |  |  | 
3 | CCn1c2c(sc1=[Se])[Se][Au-]1([Se]c3sc(=[Se])n(CC)c3[Se]1)[Se]2.c1ccc([P+](c2ccccc2)(c2ccccc2)c2ccccc2)cc1 [[P][AuSeEt(=Se)]] | 3960 ± 2210 nM | 640 ± 190 nM | 2420 ± 1520 nM | >62.5 µg/mL |  | >62.5 µg/mL | 518 ± 246 nM | >125 µg/mL | >125 µg/mL |  |  |  |  |  |  |  | 
4 | O=C1C(O)=C([C@H]2CC[C@H](c3ccc(Cl)cc3)CC2)C(=O)c2ccccc21 [Atovaquone, reference compound] |  |  |  |  |  |  |  |  |  |  | nanomolar-ranged activity |  |  |  |  |  | 
5 | CCCn1c2c(sc1=S)[S][Au-]1([S]c3sc(=S)n(CCC)c3[S]1)[S]2.c1ccc([P+](c2ccccc2)(c2ccccc2)c2ccccc2)cc1 [[P][AuSPr(=S)]] |  |  |  |  |  |  |  |  |  |  |  | >125 µg/mL | 4600 ± 1150 nM | 520 ± 230 nM | >125 µg/mL | >125 µg/mL | >125 µg/mL
6 | CC[N+](CC)(CC)CC.Cn1c2c(sc1=S)[S][Au-]1([S]c3sc(=S)n(C)c3[S]1)[S]2 [[N][AuSMe(=S)]] | 1630 ± 400 nM | 110 nM | 2440 ± 780 nM | >62.5 *** µg/mL | some degree of toxicity | 2.9 ± 0.9 µg/mL | 429 ± 39.6 nM | >250 µg/mL | 4.4 ± 0.2 µg/mL |  |  |  |  |  |  |  | 
7 | CCn1c2c(sc1=O)[S][Au-]1([S]c3sc(=O)n(CC)c3[S]1)[S]2.c1ccc([P+](c2ccccc2)(c2ccccc2)c2ccccc2)cc1 [[P][AuSEt(=O)]] | 860 ± 110 nM | 310 ± 100 nM | 1160 ± 210 nM | >62.5 µg/mL | some degree of toxicity | >62.5 µg/mL |  | >125 µg/mL | >125 µg/mL | more toxic than [P][AuSEt(=S)] |  |  |  |  |  |  | 
8 | CCCn1c2c(sc1=S)[Se][Au-]1([Se]c3sc(=S)n(CCC)c3[Se]1)[Se]2.c1ccc([P+](c2ccccc2)(c2ccccc2)c2ccccc2)cc1 [[P][AuSePr(=S)]] | 910 ± 400 nM | 290 ± 100 nM | 1570 ± 430 nM | >125 µg/mL |  | >125 µg/mL | 544 ± 19.4 nM | >250 µg/mL | >250 µg/mL |  |  |  |  |  |  |  | 
9 | CC(C)n1c2c(sc1=S)[Se][Au-]1([Se]c3sc(=S)n(C(C)C)c3[Se]1)[Se]2.CC[N+](CC)(CC)CC [[N][AuSeiPr(=S)]] | 30300 ± 3390 nM | 8270 ± 1120 nM | 8760 ± 690 nM | >125 µg/mL |  | 2.1 ± 0.1 µg/mL |  | >250 µg/mL | 1.5 ± 0.1 µg/mL |  |  |  |  |  |  |  | 

From article PMC9266914, “Broad Spectrum Functional Activity of Structurally Related Monoanionic Au(III) Bis(Dithiolene) Complexes” (International Journal of Molecular Sciences, 2022)
